{"source": "patent US20030225123A1", "about": "“Antihypertensive agents and use” (priority 2003, published 2003)", "key": {"[1]": {"tested_on": "spontaneously hypertensive rats (SHR)", "test": "Antihypertensive effect (MABP by radiotelemetry) of CI-1027, quinapril and their combination in SHR (Example 1)", "type": "in vivo, rat", "experimental": "The antihypertensive effects of the carboxyalkylether compound of Formula III (CI-1027), alone and in combination with an antihypertensive agent such as quinapril (CI-906), were evaluated in rats according to the following protocol. Male spontaneously hypertensive rats (SHR, 15-20 weeks old, Charles River Laboratories, Wilmington, Mass.) were prepared with indwelling aortic catheters and radiotransmitters (Data Sciences International, Saint Paul, Minn.). The radiotransmitters provided continuous measurement of aortic blood pressure waveform. From the aortic blood pressure waveform a Ponemah (Gould Instruments Inc, Valley View, Ohio) computer provided mean arterial blood pressure (MABP) and heart rate values continuously as one-minute averages. One-minute data was then summarized at 15-minute intervals using Excel (Microsoft Corporation, Redmond, Wash.) spreadsheets. Animals were allowed food and water ad libitum. To allow for recovery following surgery, rats were not dosed for a minimum of 7 days. Day 0 predose blood pressures were obtained by averaging eight 15-minute MABP measurements made 2 hours before dosing. To obtain the peak response to treatment (Days 0, 12, 16, 19, and 22), the 15-minute MABP measurements in the interval between 2 and 4 hours post-dose were averaged. Test compounds were given in a vehicle that contained 96% water, 3% carbomethocellulose (Sigma Chemical, Saint Louis, Mo.) and 1% tween […] (polyoxyethylenesorbitan monooleate, Sigma Chemical). CI-1027 and quinapril monotherapy were administered at 8:30 AM daily by oral gavage in a volume of 2 mL/kg. The combination of CI-1027 and quinapril was given as a single gavage in a volume of 2 mL/kg. The experiment was carried out over 22 days in 4 groups of animals. Group I served as a control and received 2 mL/kg/day of vehicle for 22 consecutive days. Group II, used to determine the antihypertensive response to quinapril monotherapy, was given vehicle for the first 12 to 13 consecutive days. Then on Day 13 to 14 quinapril was added at a dose of 0.3 mg/kg/day for 3 to 4 consecutive days; the dose was then increased to 1 mg/kg/day for the next 3 days, and on the final 3 days, 3 mg/kg/day was administered. To determine the response to CI-1027 monotherapy, Groups III and IV received 12-day treatment with CI-1027 monotherapy at doses of 30 and 100 mg/kg/day, respectively. To determine the antihypertensive response to the combination therapy quinapril, was added to the ongoing CI-1027 treatment (Day 13-14) using the rising dose protocol described for Group II (quinapril monotherapy). [table]"}, "[2]": {"tested_on": "SHR", "test": "Antihypertensive effect (MABP by radiotelemetry) of CI-1027, amlodipine and their combination in SHR (Example 2)", "type": "in vivo, rat", "experimental": "The general procedure of Example 1 was followed to evaluate the antihypertensive efficacy of the carboxyalkylether CI-1027 alone and in combination with the calcium channel blocker amlodipine.\nMale SHR (15-20 weeks old, Charles River Laboratories) were prepared with indwelling aortic catheters and radiotransmitters for continuous measurement of arterial blood pressure and heart rate. Animals were allowed food and water ad libitum. Before dosing all rats were given a minimum of 7 days for recovery from surgery.\nThe experiment was carried out over 22 days in 3 groups of SHR. Group I served as a control and received 2 mL/kg/day of vehicle (same as in Example 1) for 22 consecutive days. Group II, used to determined the antihypertensive response to amlodipine monotherapy, was given vehicle for the first 13 consecutive days. Then on Day 14, amlodipine was added at a dose of 0.3 mg/kg/day for 3 consecutive days. The dose was then increased to 1 mg/kg/day for the next 3 days, and on the final 3 days, 3 mg/kg/day was given. To determine the response to CI-1027 monotherapy, Group III received a 13-day treatment with CI-1027 monotherapy at a dose of 30 mg/kg/day. The antihypertensive response to the combination therapy was determined by the addition of amlodipine to ongoing CI-1027 treatment on Day 14.\nDrugs were suspended or dissolved in vehicle that contains 96% water, 3% carboxymethocellulose, and 1% tween 88. Compounds were given at 9 AM daily by oral gavage in a volume of 2 mL/kg. The combination of CI-1027 and amlodipine was given as a single gavage in a volume of 2 mL/kg."}}, "note": "Values joined by “and” are separate entries in the source; they are usually repeats but may differ in a detail not shown here. Equal entries are not always repeated."}
{"compound": "CCOC(=O)[C@H](CCc1ccccc1)N[C@@H](C)C(=O)N1Cc2ccccc2C[C@H]1C(=O)O", "note": "[Quinapril, quinapril]", "values": [{"measurement": "Peak MABP", "setting": "[1]; Quinapril 0.3 mg/kg/day oral, Day 16, 2-4 h postdose", "value": "122 ± 5", "unit": "mm Hg"}, {"measurement": "Peak MABP", "setting": "[1]; Quinapril 1 mg/kg/day oral, Day 19, 2-4 h postdose", "value": "121 ± 4", "unit": "mm Hg"}, {"measurement": "Peak MABP", "setting": "[1]; Quinapril 3 mg/kg/day oral, Day 22, 2-4 h postdose", "value": "117 mm Hg and 117 ± 4 mm Hg"}, {"measurement": "Antihypertensive response at 3 mg/kg/day greater than at 0.3 mg/kg/day", "setting": "[1]; Quinapril monotherapy, rising dose", "value": 5, "unit": "mm Hg"}]}
{"compound": "CCOC(=O)C1=C(COCCN)NC(C)=C(C(=O)OC)C1c1ccccc1Cl", "note": "(stereo not drawn) [Amlodipine, amlodipine]", "values": [{"measurement": "Peak MABP", "setting": "[2]; Amlodipine 0.3 mg/kg/day oral, Day 16, 4-6 h postdose", "value": "140 ± 6", "unit": "mm Hg"}, {"measurement": "Peak MABP", "setting": "[2]; Amlodipine 1 mg/kg/day oral, Day 19, 4-6 h postdose", "value": "131 ± 5", "unit": "mm Hg"}, {"measurement": "Peak MABP", "setting": "[2]; Amlodipine 3 mg/kg/day oral, Day 22, 4-6 h postdose", "value": "114 mm Hg and 114 ± 5 mm Hg"}, {"measurement": "Threshold antihypertensive dose", "setting": "[2]; amlodipine monotherapy (Group II), oral", "value": 1, "unit": "mg/kg/day"}]}
{"compound": "CC(C)(CCCCOCCCCC(C)(C)C(=O)O)C(=O)O", "note": "[CI-1027]", "values": [{"measurement": "Peak MABP", "setting": "[2]; CI-1027 30 mg/kg/day oral, Day 0, 4-6 h postdose", "value": "129 ± 4", "unit": "mm Hg"}, {"measurement": "Peak MABP", "setting": "[2]; CI-1027 30 mg/kg/day oral, Day 13, 4-6 h postdose, 30 mg/kg/day", "value": "120 mm Hg and 120 ± 8 mm Hg"}, {"measurement": "Effect of monotherapy on blood pressure", "setting": "[2]; CI-1027 monotherapy 30 mg/kg/day, 13 days", "value": "lowers blood pressure in the SHR"}, {"measurement": "Peak MABP", "setting": "[1]; CI-1027 30 mg/kg/day oral, Day 0, 2-4 h postdose", "value": "145 ± 4", "unit": "mm Hg"}, {"measurement": "Peak MABP", "setting": "[1]; CI-1027 30 mg/kg/day oral, Day 12, 2-4 h postdose, 30 mg/kg/day", "value": "131 mm Hg and 131 ± 3 mm Hg"}, {"measurement": "Peak MABP", "setting": "[1]; CI-1027 100 mg/kg/day oral, Day 0, 2-4 h postdose", "value": "141 ± 4", "unit": "mm Hg"}, {"measurement": "Antihypertensive activity of monotherapy", "setting": "[1]; CI-1027 monotherapy 30 and 100 mg/kg/day, 12 days", "value": "modest antihypertensive activity"}]}
